Laboratory results: PubChem BioAssay (NCI)
Where “and” joins values, the source holds several entries; their conditions need not be identical. Identical values can stand only once.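 Where inhibition never reached the appropriate level, the endpoint shown equals the highest concentration tested. Otherwise, values were interpolated linearly from a five-concentration, 48-hour dose response in 96-well plates. Here, GI50 denotes the concentration required for 50% inhibition of growth. TGI denotes the concentration required for complete inhibition of growth.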

Experiments:
Assay in all cases: NCI-60 cell line screen, 48 h
[1] = system: 786-0 renal
[2] = system: A549 NSCLC
[3] = system: HCT-15 colon
[4] = system: K-562 leukemia
[5] = system: KM12 colon
[6] = system: MALME-3M melanoma
[7] = system: NCI-H23 lung
[8] = system: HS 578T breast
[9] = system: MDA-MB-231 breast
[10] = system: MDA-MB-435
[11] = system: BT-549 breast

Compound | TGI [1] | TGI [2] | TGI [3] | TGI [4] | TGI [5] | TGI [6] | TGI [7] | TGI [8] | TGI [9] | TGI [10] | TGI [11] | GI50 [3] | GI50 [4] | GI50 [5] | GI50 [6] | GI50 [9] | GI50 [10] | GI50 [7]
C/C(=N\N(C)C)C(CN(C)C)C(c1ccccc1)c1c(O)c2ccccc2oc1=O (centres undefined) | > 100 µM | > 100 µM | > 100 µM | > 100 µM | > 100 µM | > 100 µM | > 100 µM | – | – | – | – | – | – | – | – | – | – | –
O=C1c2cc3c(cc2CC12Cc1cc4c(cc1C2)CCC4)CCC3 | > 100 µM | > 100 µM | > 100 µM | > 100 µM | > 100 µM | > 100 µM | > 100 µM | > 100 µM | > 100 µM | > 100 µM | – | – | – | – | – | – | – | –
Cc1ccc(S(=O)(=O)Nn2c(-c3ccccc3)c(C#N)c(-c3ccc([N+](=O)[O-])cc3)c(C#N)c2=O)cc1 | > 100 µM | > 100 µM | > 100 µM | – | > 100 µM | > 100 µM | – | > 100 µM | > 100 µM | > 100 µM | > 100 µM | – | – | – | – | – | – | –
COc1cc2c3c(n(CCCNCCO)c(=O)c2cc1OC)-c1cc2c(cc1C3=O)OCO2 | 0.118 µM and 0.0216 µM | – | 2.08 µM and 7.76 µM | > 100 µM | – | 4.06 µM and 2 µM | 0.171 µM and 0.493 µM | 27.3 µM | 2.03 µM and 5.18 µM | – | 7.97 µM | 0.548 µM and 0.657 µM | 2.16 µM and 0.511 µM | 3.16 µM | 0.252 µM and 0.143 µM | 1.09 µM | 0.528 µM and 1.34 µM | 0.0437 µM
Cc1ccc2ccccc2c1CC1S(=O)(=O)OCCOS1(=O)=O | 30.3 µM | 29.6 µM | 42.9 µM | 34 µM | 29.3 µM | 25.2 µM | 41 µM | – | 29.1 µM | 22 µM | 25.7 µM | – | – | – | – | – | – | –
OC(CC(c1ccccc1)c1ccc(Cl)cc1)c1ccc(Cl)cc1 (centres undefined) | > 100 µM | > 100 µM | > 100 µM | > 100 µM | > 100 µM | 79.1 µM | 87.8 µM | > 100 µM | – | 91.5 µM | > 100 µM | – | – | – | – | – | – | –
CN(C)c1ccc(-c2nc(-c3cc4c(ccc5ccccc54)oc3=O)cs2)cc1 | > 100 µM | > 100 µM | > 100 µM | > 100 µM | > 100 µM | > 100 µM | – | > 100 µM | > 100 µM | > 100 µM | > 100 µM | – | – | – | – | – | – | –
Cc1ccc(Nc2nc(=O)[nH]c(=O)[nH]2)cc1N | > 100 µM | > 100 µM | > 100 µM | – | > 100 µM | > 100 µM | > 100 µM | > 100 µM | > 100 µM | > 100 µM | > 100 µM | – | – | – | – | – | – | –
COc1cc(C2SCC(=O)N2NC(=O)c2ccc(NC(C)=O)cc2)cc(OC)c1OC (centres undefined) | > 100 µM | > 100 µM | > 100 µM | > 100 µM | > 100 µM | – | > 100 µM | > 100 µM | > 100 µM | > 100 µM | > 100 µM | – | – | – | – | – | – | –
CCCCN(CCCC)C(=NCc1ccccc1)NC#N | 47 µM | > 100 µM | 28.2 µM | 28.3 µM | 83.6 µM | 87.4 µM | 58.5 µM | – | – | – | – | – | – | – | – | – | – | –
CC1=NN(C(=O)CC(=O)Nc2cccc(Cl)c2)C(=O)C1N=Nc1ccc(S(N)(=O)=O)cc1 (centres undefined) | > 100 µM | > 100 µM | > 100 µM | – | > 100 µM | > 100 µM | > 100 µM | – | – | – | – | – | – | – | – | – | – | –
O=C1c2cc(Cl)ccc2-n2c(noc2=O)C2CSCN12 (centres undefined) | > 100 µM | > 100 µM | > 100 µM | > 100 µM | > 100 µM | > 100 µM | – | > 100 µM | > 100 µM | > 100 µM | > 100 µM | – | – | – | – | – | – | –
CC1=NNC(N)=N/C1=C/C(Sc1ccc(Cl)cc1)c1cccs1 (centres undefined) | 82.4 µM | 38.8 µM | 30 µM | 67.9 µM | 23.1 µM | 27.1 µM | 52 µM | > 100 µM | – | 55.3 µM | > 100 µM | – | – | – | – | – | – | –
Oc1c2cccc1Cc1cccc3c1OCCOCCOCCOCCOc1c(cccc1Cc1cccc(c1O)C3)C2 | > 100 µM | > 100 µM | > 100 µM | > 100 µM | > 100 µM | – | > 100 µM | > 100 µM | > 100 µM | > 100 µM | > 100 µM | – | – | – | – | – | – | –
O=C1/C(=C/c2ccccc2S)N=C(c2ccccc2)N1c1ccc2c(c1)Sc1cc(N3C(=O)/C(=C/c4ccccc4S)N=C3c3ccccc3)ccc1N2 | 46.4 µM | 35 µM | > 100 µM | 51 µM | > 100 µM | – | – | 72.4 µM | 89.9 µM | 48.9 µM | 73.5 µM | – | – | – | – | – | – | –
COc1ccccc1C(=O)c1c(N2CCCCC2)c(=O)c1=O | > 100 µM | > 100 µM | > 100 µM | > 100 µM | > 100 µM | > 100 µM | > 100 µM | – | > 100 µM | > 100 µM | > 100 µM | – | – | – | – | – | – | –
CCCCCCCCCCCCCCCCOCC(CC(F)(F)P(=O)(O)O)OC(C)=O (centres undefined) | > 50 µM | > 50 µM | > 50 µM | > 50 µM | > 50 µM | > 50 µM | > 50 µM | – | > 50 µM | > 50 µM | > 50 µM | – | – | – | – | – | – | –
COc1ccc(N2C(=O)C3c4[nH]c5ccc(C)cc5c4C4CCC(C(C)C)CC4C3C2=O)cc1 (centres undefined) | > 100 µM | > 100 µM | > 100 µM | > 100 µM | > 100 µM | – | > 100 µM | > 100 µM | > 100 µM | > 100 µM | > 100 µM | – | – | – | – | – | – | –
Cc1cccc(NC(=O)CC(=O)N2N=C(N3c4ccccc4Sc4ccccc43)CC2c2ccccc2)c1 (centres undefined) | > 100 µM | > 100 µM | > 100 µM | > 100 µM | > 100 µM | – | > 100 µM | > 100 µM | > 100 µM | > 100 µM | > 100 µM | – | – | – | – | – | – | –
CC1=NN(c2nc(N)nc(/C(C#N)=C/c3ccncc3)n2)C(C)(C)C1 | > 100 µM | – | > 100 µM | 37.9 µM | > 100 µM | – | > 100 µM | > 100 µM | > 100 µM | > 100 µM | > 100 µM | – | – | – | – | – | – | –
O=C(c1cccs1)N(C(=S)N1CCN(c2ccccc2)CC1)c1ccccc1 | > 100 µM | > 100 µM | > 100 µM | > 100 µM | > 100 µM | > 100 µM | > 100 µM | – | – | – | – | – | – | – | – | – | – | –
